Measurements as given in PubChem BioAssay AID192 (DTP/NCI, 2004).
“And” between values parts separate entries of the source, which are not always exact repeats. Equal values may be shown once. Toxic doses and inconclusive results are not listed.

Tested on: BDF1 mice, B16 melanoma ip, median survival T/C
Assay: NCI In Vivo Anticancer Drug Screen. Data for tumor model B16 Melanoma (intraperitoneal) in B6D2F1 (BDF1) mice
Details: endpoint: median survival time, higher = longer survival
Summary of the method: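 Survival or tumor size is measured after treatment of tumor-bearing mice and normalised to the vehicle-treated control group.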

[1] = dose: 100.0 mg/kg/injection, schedule: Q01DX009 (ip), vehicle: saline with Tween-80
[2] = dose: 200.0 mg/kg/injection, schedule: Q01DX009 (ip), vehicle: saline with Tween-80
[3] = dose: 12.5 mg/kg/injection, schedule: Q01DX009 (ip), vehicle: saline with Tween-80
[4] = dose: 25.0 mg/kg/injection, schedule: Q01DX009 (ip), vehicle: saline with Tween-80
[5] = dose: 12.5 mg/kg/injection, schedule: Q01DX009 (ip), vehicle: Klucel (hydroxypropylcellulose) (HPC)
[6] = dose: 25.0 mg/kg/injection, schedule: Q01DX009 (ip), vehicle: Klucel (hydroxypropylcellulose) (HPC)
[7] = dose: 100.0 mg/kg/injection, schedule: Q01DX009 (ip), vehicle: Klucel (hydroxypropylcellulose) (HPC)
[8] = dose: 50.0 mg/kg/injection, schedule: Q01DX009 (ip), vehicle: saline with Tween-80
[9] = dose: 100.0 mg/kg/injection, schedule: Q01DX009 (ip), vehicle: saline
[10] = dose: 200.0 mg/kg/injection, schedule: Q01DX009 (ip), vehicle: saline
[11] = dose: 400.0 mg/kg/injection, schedule: Q01DX009 (ip), vehicle: saline
[12] = dose: 50.0 mg/kg/injection, schedule: Q01DX009 (ip), vehicle: Klucel (hydroxypropylcellulose) (HPC)
[13] = dose: 1.56 mg/kg/injection, schedule: Q01DX009 (ip), vehicle: saline with Tween-80
[14] = dose: 3.13 mg/kg/injection, schedule: Q01DX009 (ip), vehicle: saline with Tween-80
[15] = dose: 6.25 mg/kg/injection, schedule: Q01DX009 (ip), vehicle: saline with Tween-80
[16] = dose: 6.25 mg/kg/injection, schedule: Q01DX009 (ip), vehicle: saline
[17] = dose: 12.5 mg/kg/injection, schedule: Q01DX009 (ip), vehicle: saline

## CCC1(CC)CCC(Br)C(Br)C1 (stereo unspecified)
[1]
  T/C: 95 % of control
[2]
  T/C: 105 % of control
dose: 400.0 mg/kg/injection, schedule: Q01DX009 (ip), vehicle: saline with Tween-80
  T/C: 102 % of control

## O=C(Nc1cccc(Cl)c1)ON1C(=O)C2C(C1=O)C1(Cl)C(Cl)C(Cl)C2(Cl)C1(Cl)Cl (stereo unspecified)
[3]
  T/C: 87 % of control
[4]
  T/C: 96 % of control

## CC1=CC(=Nc2ccc(N(CCCl)CCCl)cc2)C=C(C)C1=O
dose: 3.12 mg/kg/injection, schedule: Q01DX009 (ip), vehicle: Klucel (hydroxypropylcellulose) (HPC)
  T/C: 102 % of control and 110 % of control
[5]
  T/C: 160 % of control
[6]
  T/C: 160 % of control
[7]
  T/C: 158 % of control

## Cc1ccc(C(C)(C)Cl)cc1O
[3]
  T/C: 117 % of control
[4]
  T/C: 112 % of control
[8]
  T/C: 96 % of control

## OCCN1CCCN(CCCN2c3ccccc3Sc3ccc(C(F)(F)F)cc32)CC1
dose: 0.14 mg/kg/injection, schedule: Q04DX003 (ip), vehicle: saline
  T/C: 108 % of control
dose: 0.29 mg/kg/injection, schedule: Q04DX003 (ip), vehicle: saline
  T/C: 100 % of control
dose: 0.58 mg/kg/injection, schedule: Q01DX009 (ip), vehicle: saline
  T/C: 98 % of control
dose: 0.58 mg/kg/injection, schedule: Q04DX003 (ip), vehicle: saline
  T/C: 99 % of control
dose: 1.17 mg/kg/injection, schedule: Q01DX009 (ip), vehicle: saline
  T/C: 98 % of control
dose: 1.17 mg/kg/injection, schedule: Q04DX003 (ip), vehicle: saline
  T/C: 104 % of control
dose: 2.34 mg/kg/injection, schedule: Q01DX009 (ip), vehicle: saline
  T/C: 96 % of control
dose: 2.34 mg/kg/injection, schedule: Q04DX003 (ip), vehicle: saline
  T/C: 105 % of control and 116 % of control
dose: 4.68 mg/kg/injection, schedule: Q01DX009 (ip), vehicle: saline
  T/C: 90 % of control
dose: 4.68 mg/kg/injection, schedule: Q04DX003 (ip), vehicle: saline
  T/C: 122 % of control
dose: 9.37 mg/kg/injection, schedule: Q04DX003 (ip), vehicle: saline
  T/C: 119 % of control

## CCOC(=O)C(C(=O)COC)C(=O)OCC
dose: 25.0 mg/kg/injection, schedule: Q01DX009 (ip), vehicle: water
  T/C: 102 % of control
dose: 50.0 mg/kg/injection, schedule: Q01DX009 (ip), vehicle: water
  T/C: 98 % of control
dose: 100.0 mg/kg/injection, schedule: Q01DX009 (ip), vehicle: water
  T/C: 93 % of control

## CC1CCC(O)C1O (stereo unspecified)
[9]
  T/C: 120 % of control
[10]
  T/C: 120 % of control
[11]
  T/C: 122 % of control

## CCCCCCC(=O)CCCC
dose: 100.0 mg/kg/injection, schedule: Q01DX009 (ip), vehicle: other
  T/C: 98 % of control
dose: 200.0 mg/kg/injection, schedule: Q01DX009 (ip), vehicle: other
  T/C: 100 % of control

## Cn1cnc([N+](=O)[O-])c1S(=O)(=O)NCN1CCOCC1
[5]
  T/C: 98 % of control
[6]
  T/C: 96 % of control
[12]
  T/C: 97 % of control
[7]
  T/C: 94 % of control

## CCN(CC)CCNc1ccc(C)c2sc3ccccc3c(=O)c12
dose: 6.25 mg/kg/injection, schedule: Q01DX009 (ip), vehicle: suspension in saline
  T/C: 103 % of control
dose: 12.5 mg/kg/injection, schedule: Q01DX009 (ip), vehicle: suspension in saline
  T/C: 105 % of control
dose: 25.0 mg/kg/injection, schedule: Q01DX009 (ip), vehicle: suspension in saline
  T/C: 103 % of control
dose: 50.0 mg/kg/injection, schedule: Q01DX009 (ip), vehicle: suspension in saline
  T/C: 102 % of control
dose: 100.0 mg/kg/injection, schedule: Q01DX009 (ip), vehicle: suspension in saline
  T/C: 120 % of control

## CCn1c(=O)c2[nH]c(Cl)nc2n(CC)c1=O
dose: 1.25 mg/kg/injection, schedule: Q## X032 (ip), vehicle: water
  T/C: 103 % of control
dose: 2.5 mg/kg/injection, schedule: Q## X032 (ip), vehicle: water
  T/C: 101 % of control
dose: 5.0 mg/kg/injection, schedule: Q## X032 (ip), vehicle: water
  T/C: 103 % of control
dose: 10.0 mg/kg/injection, schedule: Q## X032 (ip), vehicle: water
  T/C: 97 % of control

## BrC1(Br)CC1(c1ccccc1)c1ccccc1
dose: 50.0 mg/kg/injection, schedule: Q04DX003 (ip), vehicle: Klucel (hydroxypropylcellulose) (HPC)
  T/C: 111 % of control
dose: 100.0 mg/kg/injection, schedule: Q04DX003 (ip), vehicle: Klucel (hydroxypropylcellulose) (HPC)
  T/C: 105 % of control
dose: 200.0 mg/kg/injection, schedule: Q04DX003 (ip), vehicle: Klucel (hydroxypropylcellulose) (HPC)
  T/C: 102 % of control

## CCC(CC)OCCN1CCN(CCCN2c3ccccc3Sc3ccc(C(F)(F)F)cc32)CC1
dose: 0.5 mg/kg/injection, schedule: Q01DX009 (ip), vehicle: saline with Tween-80
  T/C: 109 % of control
dose: 1.0 mg/kg/injection, schedule: Q01DX009 (ip), vehicle: saline with Tween-80
  T/C: 103 % of control

## O=C1N[C@H]2[C@H](CS[C@H]2CCCCC(=O)N(CCP(c2ccccc2)c2ccccc2)CCP(c2ccccc2)c2ccccc2)N1
[6]
  T/C: 112 % of control
[12]
  T/C: 120 % of control
dose: 200.0 mg/kg/injection, schedule: Q01DX009 (ip), vehicle: Klucel (hydroxypropylcellulose) (HPC)
  T/C: 123 % of control
dose: 400.0 mg/kg/injection, schedule: Q01DX009 (ip), vehicle: Klucel (hydroxypropylcellulose) (HPC)
  T/C: 108 % of control

## NC(=S)N/N=C/c1ccc(OC(F)(F)F)cn1
[13]
  T/C: 92 % of control
[14]
  T/C: 94 % of control
[15]
  T/C: 89 % of control
[3]
  T/C: 95 % of control

## O=C(O)C1(C(=O)O)CCCCC1.[NH2-].[NH2-].[Pt+2]
[16]
  T/C: 159 % of control
[17]
  T/C: 188 % of control

## O=P(NC12CC3CC(CC(C3)C1)C2)(N1CC1)N1CC1
dose: 4.4 mg/kg/injection, schedule: Q01DX009 (ip), vehicle: Klucel (hydroxypropylcellulose) (HPC)
  T/C: 100 % of control
dose: 6.6 mg/kg/injection, schedule: Q01DX009 (ip), vehicle: Klucel (hydroxypropylcellulose) (HPC)
  T/C: 110 % of control

## CCCN(C)/N=N/c1nc[nH]c1C(N)=O
[8]
  T/C: 112 % of control

## CCN(CC)CCCN1c2ccccc2Sc2ccc(Cl)cc21
dose: 0.78 mg/kg/injection, schedule: Q01DX009 (ip), vehicle: saline
  T/C: 91 % of control
dose: 1.56 mg/kg/injection, schedule: Q01DX009 (ip), vehicle: saline
  T/C: 104 % of control
dose: 3.12 mg/kg/injection, schedule: Q01DX009 (ip), vehicle: saline
  T/C: 102 % of control
[16]
  T/C: 93 % of control
[17]
  T/C: 91 % of control

## CC(NC(=O)C(C)NC(=O)OC(C)(C)C)C(=O)O (stereo unspecified)
[4]
  T/C: 92 % of control
[8]
  T/C: 94 % of control
[1]
  T/C: 93 % of control
[2]
  T/C: 92 % of control

## CCCOCC(O)CO (stereo unspecified)
[9]
  T/C: 118 % of control
[10]
  T/C: 118 % of control
[11]
  T/C: 112 % of control

## NC(=O)N/N=C1\CC2C=CCC12 (stereo unspecified)
[8]
  T/C: 105 % of control
[1]
  T/C: 97 % of control
[2]
  T/C: 101 % of control

## C=C(Cl)c1c(C)cc(C)cc1C
[12]
  T/C: 87 % of control

## c1ccc(C2=C([P+](c3ccccc3)(c3ccccc3)c3ccccc3)CCO2)cc1
dose: 6.0 mg/kg/injection, schedule: Q01DX009 (ip), vehicle: saline
  T/C: 116 % of control
[16]
  T/C: 105 % of control

## CCOC(=O)C(Cc1ccc(Cl)c(Cl)c1)(Cc1ccc(Cl)c(Cl)c1)C(=O)OCC
[3]
  T/C: 99 % of control
[4]
  T/C: 97 % of control
[8]
  T/C: 94 % of control

## CCCC1CC[N-]CC1.CCCC1CC[N-]CC1.CCCC1CC[N-]CC1.CCCC1CC[N-]CC1.[Cl][Rh][Cl]
dose: 0.37 mg/kg/injection, schedule: Q01DX009 (ip), vehicle: Klucel (hydroxypropylcellulose) (HPC)
  T/C: 104 % of control
dose: 0.75 mg/kg/injection, schedule: Q01DX009 (ip), vehicle: Klucel (hydroxypropylcellulose) (HPC)
  T/C: 102 % of control
dose: 1.5 mg/kg/injection, schedule: Q01DX009 (ip), vehicle: Klucel (hydroxypropylcellulose) (HPC)
  T/C: 100 % of control
[13]
  T/C: 109 % of control
[14]
  T/C: 116 % of control
[15]
  T/C: 98 % of control

## O=C1CN(CCN2CC(=O)NC(=O)C2)CC(=O)N1
dose: 15.0 mg/kg/injection, schedule: Q01DX009 (oral), vehicle: saline
  T/C: 115 % of control
dose: 30.0 mg/kg/injection, schedule: Q01DX009 (oral), vehicle: saline
  T/C: 122 % of control
